Assays:
[1] = tested on: HeLa cells; experiment: SRB assay, cell viability; format: cell-based; details: Homo sapiens, 48 h, average of three experiments
Experimental: (§1) In order to determine the anticancer potency, the synthesized oxindole derivatives were evaluated for anti-cancer activity various different human cancer cell lines, Leukemic Cancer (THP1), human breast cancer (MDA-MB-231 and MCF-7), human cervix carcinoma cells (HeLa), prostate cancer (DU-145) cellS by using standard Trypan blue and SRB assays. The preliminary anticancer activity for all the synthesized compounds was done at 10 μM concentration and cell inhibition was determined. […] The experiment was repeated thrice and the average values were taken.
(§2) The assay was carried out in a 24 well flat-bottomed microtiter tissue culture plate. Cells were seeded in the plates with a density of 4×10^4 cells/well (counted by tryphan blue exclusion dye method). After 24 hours media was replaced with fresh media and then compounds were added to obtain a concentrations of 10 μM. Sunitinib was used as positive control. Plates were incubated for 48 h at 37° C. in a humidified incubator with 5% CO2. After 48 hours without removing the cell culture supernatant, 500 μl of cold 10% (wt/vol) TCA was added to each well, and the plates were incubated at 4° C. for 1 h. The plates were washed for four times with water then rinsed with water several times to remove TCA, serum, proteins and excess water was removed using paper towels and air dried. 100 μl of 0.4% (wt/vol in 1% acetic acid) SRB solution was added to each well. Plates were left at room temperature for 30 min and then the plates were quickly rinsed for four times with 1% (vol/vol) acetic acid to remove unbound dye were and then air dried until no moisture was visible. 100 μl of 10 mM Tris base solution (pH 10.5) was added to each well and shake for 5 min to solubilize the protein-bound dye. Optical density was measured at 564 nm in a micro plate reader.

[2] = tested on: DU-145 cells; experiment: SRB assay, cell viability; format: cell-based; details: Homo sapiens, 48 h, average of three experiments, read-out: DU145 Cell Viability at 10 μM
Experimental: as §1, §2

[3] = tested on: MCF-7 cells; experiment: SRB assay, cell viability; format: cell-based; details: Homo sapiens, MCF7, 48 h, average of three experiments
Experimental: as §1, §2

[4] = tested on: MDA-MB-231 cells; experiment: SRB assay, cell viability; format: cell-based; details: Homo sapiens, 48 h, average of three experiments
Experimental: as §1, §2

[5] = tested on: THP1 cells; format: cell-based, human; details: THP-1 cells, 10 μM, 24 h; untreated cells 68.3%
Experimental: To understand the anticancer activity mechanism of the synthesized oxindole derivatives, we analysed the cell cycle alteration phase distribution of the cells by treating THP1 cells with oxindole derivatives at 10 μM, for 24 h and analyzed by flow cytometry. Treatment of THP-1 cells with compounds 2b, 3d, 3e, 3g, 3h, 3i, 3j and 3k caused an accumulation of 98.5%, 94.3%, 96.7%, 97%, 98%, 83%, 93.5%, 98.1% cells in the G0/G1 phase respectively as compared to 68.3% in untreated cells and 99.5% in Sunitinib treated cells. […] (Fig. x and Table .y).
The THP1 cells were treated with the active compounds at […] and incubated for about 24 h. The cells were fixed in ice cold ethanol solvent at 4° C. for about 30 minutes. The ethanol was removed and cells were treated with 1 mL of DNA staining solution (2 mg of RNase and 0.2 mg of propidium iodide (PI)) for 30 minutes. The DNA content was measured by flow cytometry (BD FACS C anto II). Results were analysed using FCS express 4 plus software.

[6] = tested on: THP1 cells; experiment: Trypan blue assay, cell viability; format: cell-based; details: Homo sapiens, THP-1, 48 h, average of three experiments
Experimental: as §1
The assay was carried out in a 24 well flat-bottomed microtiter tissue culture plate. THP1 cells were seeded in the plates with a density of 4×10^4 cells/well (counted by tryphan blue exclusion dye method). Compounds were added to obtain a concentration of 10 μM. Sunitinib was used as positive control. Plates were incubated for 48 h at 37° C. in a humidified incubator with 5% CO2. At the end of the treatments, cells (THP1) were resuspended in 0.4% trypan blue and percent cell viability was counted using countess cell chamber (Life Technologies).

[7] = tested on: VEGF tyrosin kinase (VEGFR); experiment: VEGFR activity, phosphotyrosine (PY) cell-based ELISA; details: 10 μM, 60 min pretreatment, VEGF stimulation
Experimental: Briefly, cells at 60-75% confluence were placed in serum-free medium for 18 h to reduce the background of phosphorylation. Cells were then pretreated for 60 min with 2b, 3d, 3e, 3g, 3h, 3i, 3j and 3k compounds at 10 μM concentration followed by an optimized dose of purified growth factor (VEGF). The reaction was stopped, and cells were permeabilized by quickly removing the media from the cells and adding ice-cold Tris-buffered saline (TBS) containing 0.05% triton X-100, protease inhibitor cocktail, and tyrosine phosphatase inhibitor cocktail (both from Sigma Chemical). The TBS solution was then removed, and cells were fixed to the plate by heat and further incubation in 70% ethanol. Cells were further exposed to block (TBS with 1% BSA) and washed, and then a horseradish peroxidase (HRP)-conjugated phosphotyrosine antibody was added. The antibody was removed; cells were washed again and exposed to an enhanced luminol ELISA substrate, and light emission was measured using a plate reader. The known RTK-specific kinase inhibitor (Sunitinib) was used as positive control for kinase inhibition.

melting point	Compound	viability at 10 µM [1]	viability at 10 µM [2]	viability at 10 µM [3]	viability at 10 µM [4]	accumulation of cells in the G0/G1 phase [5]	viability at 10 µM [6]	inhibitory activity of VEGF tyrosin kinase activity [7]
241 to 245 °C	CN(C)c1ccc(/C=C2\C(=O)Nc3cc4oc(Cc5ccccc5)c(-c5ccccc5)c4cc32)c2ccccc12 [Compound 3j, (Z)-2-benzyl-5-((4-(dimethylamino)naphthalen-1-yl)methylene)-3-phenyl-5H-furo[3,2-f]indol-6(7H)-one]	107%	45.2%	37.8%	71.3%	93.5%	83.3%	inhibitory activity
188 to 192 °C	CN(C)c1ccc(/C=C2\C(=O)Nc3cc(O)c(C(C#Cc4ccccc4)c4ccccc4)cc32)c2ccccc12 (stereo not shown) [Compound 3e, (Z)-3-((4-(dimethylamino)naphthalen-1-yl)methylene)-5-(1,3-diphenylprop-2-yn-1-yl)-6-hydroxyindolin-2-one]	153%	48.2%	78.2%	85.9%	96.7%	125%	inhibitory activity

Source: US10343991B2, “C5, C6 substituted and/or fused oxindoles as anti-cancer agents and process for preparation thereof” (Council of Scientific & Industrial Research, priority 2016, dated 2019)
